Assay results reported in PubChem BioAssay (NCI).
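48-hour exposure; five concentrations; linearly interpolated endpoints. The concentration for full growth arrest is given as TGI.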

Tests used:
Assay in all cases: NCI tumour cell line growth inhibition, 48 h
U251 CNS = system: U251 CNS
CCRF-CEM leukemia = system: CCRF-CEM leukemia
SF-295 CNS = system: SF-295 CNS
SW-620 colon = system: SW-620 colon
SR leukemia = system: SR leukemia
PC-3 prostate = system: PC-3 prostate
BT-549 breast = system: BT-549 breast
OVCAR-3 ovarian = system: OVCAR-3 ovarian
HL-60(TB) leukemia = system: HL-60(TB) leukemia
HS 578T breast = system: HS 578T breast
MDA-MB-231 breast = system: MDA-MB-231 breast
SK-MEL-28 melanoma = system: SK-MEL-28 melanoma
LOX IMVI melanoma = system: LOX IMVI melanoma
T-47D breast = system: T-47D breast
K-562 leukemia = system: K-562 leukemia
CAKI-1 renal = system: CAKI-1 renal
HCT-15 colon = system: HCT-15 colon
HOP-62 NSCLC = system: HOP-62 NSCLC
MDA-N = system: MDA-N
COLO 205 colon = system: COLO 205 colon
OVCAR-8 ovarian = system: OVCAR-8 ovarian
HCC-2998 colon = system: HCC-2998 colon
A498 renal = system: A498 renal
UO-31 renal = system: UO-31 renal
HT29 colon = system: HT29 colon
SNB-19 CNS = system: SNB-19 CNS
M14 melanoma = system: M14 melanoma
SN12C renal = system: SN12C renal
NCI-H522 lung = system: NCI-H522 lung
A549 NSCLC = system: A549 NSCLC
786-0 renal = system: 786-0 renal
NCI-H226 lung = system: NCI-H226 lung
NCI-H460 lung = system: NCI-H460 lung
KM12 colon = system: KM12 colon
HCT-116 colon = system: HCT-116 colon
DU-145 prostate = system: DU-145 prostate
SK-MEL-2 melanoma = system: SK-MEL-2 melanoma
ACHN renal = system: ACHN renal
MOLT-4 leukemia = system: MOLT-4 leukemia
SF-268 CNS = system: SF-268 CNS
MALME-3M melanoma = system: MALME-3M melanoma
IGROV1 ovarian = system: IGROV1 ovarian
MCF7 breast = system: MCF7 breast
NCI-H23 lung = system: NCI-H23 lung
UACC-62 melanoma = system: UACC-62 melanoma
OVCAR-5 ovarian = system: OVCAR-5 ovarian
SF-539 CNS = system: SF-539 CNS
UACC-257 melanoma = system: UACC-257 melanoma
TK-10 renal = system: TK-10 renal
NCI/ADR-RES ovarian = system: NCI/ADR-RES ovarian
EKVX NSCLC = system: EKVX NSCLC
SK-MEL-5 melanoma = system: SK-MEL-5 melanoma
SK-OV-3 ovarian = system: SK-OV-3 ovarian
MDA-MB-435 = system: MDA-MB-435
HOP-92 NSCLC = system: HOP-92 NSCLC
RPMI-8226 leukemia = system: RPMI-8226 leukemia
OVCAR-4 ovarian = system: OVCAR-4 ovarian
RXF 393 renal = system: RXF 393 renal

Measured: TGI

OCCCc1cc(O)c2c(c1)C(CO)C(c1ccc(O)c(O)c1)O2 (stereo unspecified)
not listed: RPMI-8226 leukemia | OVCAR-4 ovarian | RXF 393 renal
> 100 µM: all other assays above

c1ccc(CCN2CCOCC2)nc1
not listed: MOLT-4 leukemia | SF-539 CNS
> 100 µM: all other assays above
